Legend:
Lin28A ZKD = target: T1, Lin28A ZKD (Homo sapiens, UniProt Q9H9Z2); test: Fluorescence polarization (FP) assay, Lin28A ZKD with FAM-labeled Let-7 probe; format: binding; settings: for suppression of FP signals: Lin28A ZKD; for IC50: 10 uM Lin28A ZKD, 1 nM FAM-labeled Let-7 probe, 1 nM–200 uM compound
T1 construct: Lin28A ZKD (aa121-187); His-tag; made in house; host or cells: Escherichia coli BL21
T1 sequence (Q9H9Z2 121-187): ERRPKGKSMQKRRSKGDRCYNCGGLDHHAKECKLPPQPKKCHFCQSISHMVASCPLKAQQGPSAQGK
From the text: ZINC compounds were purchased from Enamine (Kyiv, Ukraine), Life Chemicals Ltd. (Kyiv, Ukraine), or Princeton Biomolecular Research (Princeton, NJ, USA) with >90% purity. Upon receiving the compounds, the molecular masses were validated by LC/MS/MS. His-tagged human Lin28B ZKD (aa110-174), Lin28B CSD+ZKD (aa7-204), and Lin28A ZKD (aa121-187) were expressed in Escherichia coli BL21 cells and purified by immobilized metal ion affinity chromatography (IMAC) with nickel nitrilotriacetic acid (NiNTA) resin and size exclusion chromatography (s75 10/300 GL) as we have previously reported.
The fluorescein amidites (FAM)-tagged Let-7 probe with the sequence of […] was purchased from Integrated DNA Technologies (IDT). The probe at the concentrations ranging from 1 nM to 50 uM was incubated with Lin28B (ZKD) or Lin28 (CSD+ZKD) to a final volume of 30 uL at room temperature for 20 min. To read the fluorescence, a TECAN 500 machine was used. Fluorescence polarization was calculated using the following equation: P=Fparrallel−Fperpendicular/Fparrallel+Fperpendicular where P is the fluorescence polarization reading, F parallel is the fluorescence intensity acquired from the parallel excitation plane, and F perpendicular is the fluorescence intensity acquired from the perpendicular direction of the excitation plane. The total fluorescence intensity is estimated using the following equation: F=Fparallel+2Fperpendicular
All the raw FP signal data from the TECAN 500 FP results were analyzed using Prism 8.0 (GraphPad, San Diego, CA, USA); normalized curves were plotted and IC50 values were estimated. All FP data were repeated three to five times.
Figure 5 Lin28 inhibitors block the Lin28A isoform. (A) EMSA used 10 nM of IR800DyeCWN-labeled Let-7 probe (lane 1), 0.5 uM Lin28A ZKD protein with 10 nM of labeled Let-7 probe (lane 2), or Lin28A ZKD, labeled Let-7 probe and 100× non-labeled competitor probe (lane 3). EMSA used Lin28A ZKD, labeled Let-7 probe, and 100–1200 uM of indicated compounds (lanes 4–10). (B) FP assays were performed by using 10 uM of Lin28A ZKD, 1 nM of FAM-labeled Let-7 probe, and 1 nM–200 uM of compounds. (C) Lin28A-positive IGROV1 cells were treated with 20 uM of the indicated compound for 48 h. Real-time qPCR measured RNA levels of Let-7d, SOX2, and HMGA2. Three biological replicates were performed and all results are presented as mean +/− SD. p-value ≤ 0.05—(*); ≤0.01—(**); ≤0.001—(***).

[1] = parameters: method as in PMID 29874593; settings: cited from earlier work
[2] = parameters: method as in PMID 29874593; settings: at high uM concentrations; cited from earlier work
DUNE cells = test: Immunoblotting in DUNE cells; format: cell-based; settings: 20uM, 24 hours, immunoblot
Experimental: There are several standard molecular techniques, including real-time qPCR, flow cytometry, cell proliferation, colony formation, and immunoblotting assays, that have been reported previously by our lab.
Figure S2. DUNE cells were treated with 20uM of indicated compounds for 24 hours. Protein lyses were collected and immunoblotted with Vinculin, SOX2, and HMGA2 antibodies. […]
Figure S3. DUNE or DUNE(KO) cells were treated with 20uM of indicated compounds for 24 hours. Protein lyses were collected and immunoblotted with Lin28b, SYP, CD44, and CD133 antibodies. Beta-actin was used as the loading control. […]

suppression of FP signals (Lin28A ZKD) | IC50 (Lin28A ZKD) | SMILES | solubility [1] | cellular toxicity [2] | protein expression of SYP (DUNE cells)
mild inhibitions | – | CCOc1cccc2c1N[C@@H](c1ccc(C(=O)O)cc1)[C@H]1CC=C[C@@H]21 [Li71, reference compound] | high solubility | low cellular toxicity | –
– | 27.4 µM | CCc1cc(=O)[nH]c(Nc2cc(Cl)ccc2O)n1 [Ln7] | – | – | –

Continued, compound first:

SMILES | suppression of FP signals (Lin28A ZKD) | IC50 (Lin28A ZKD) | solubility [1] | cellular toxicity [2] | protein expression of SYP (DUNE cells)
O=c1[nH]c(Nc2ccccc2O)cs1 [Ln15] | – | 9.1 µM | – | – | suppressed
O=c1cccc(-c2nc3cc(F)c(O)cc3c(=O)[nH]2)[nH]1 [Ln115] | – | 12.2 µM | – | – | suppressed
CC(=O)N(C)c1cccc(-c2ccc3nnc(C)n3n2)c1 [compound 1632, reference compound] | mild inhibitions | – | – | – | –
